Where a chain is given by its changes, count along the chain named.
Tests used:
[1] = molecular target: T1, rat olfactory CNGA2 channel (homomeric) (Rattus norvegicus, UniProt Q00195); experiment: inside-out patch clamp, cGMP-activated current; assay type: biochemical; details: agonist; 5 mM cGMP; 145 mM NaCl, pH 7.4, 21 °C
T1 sequence (Q00195 1-664): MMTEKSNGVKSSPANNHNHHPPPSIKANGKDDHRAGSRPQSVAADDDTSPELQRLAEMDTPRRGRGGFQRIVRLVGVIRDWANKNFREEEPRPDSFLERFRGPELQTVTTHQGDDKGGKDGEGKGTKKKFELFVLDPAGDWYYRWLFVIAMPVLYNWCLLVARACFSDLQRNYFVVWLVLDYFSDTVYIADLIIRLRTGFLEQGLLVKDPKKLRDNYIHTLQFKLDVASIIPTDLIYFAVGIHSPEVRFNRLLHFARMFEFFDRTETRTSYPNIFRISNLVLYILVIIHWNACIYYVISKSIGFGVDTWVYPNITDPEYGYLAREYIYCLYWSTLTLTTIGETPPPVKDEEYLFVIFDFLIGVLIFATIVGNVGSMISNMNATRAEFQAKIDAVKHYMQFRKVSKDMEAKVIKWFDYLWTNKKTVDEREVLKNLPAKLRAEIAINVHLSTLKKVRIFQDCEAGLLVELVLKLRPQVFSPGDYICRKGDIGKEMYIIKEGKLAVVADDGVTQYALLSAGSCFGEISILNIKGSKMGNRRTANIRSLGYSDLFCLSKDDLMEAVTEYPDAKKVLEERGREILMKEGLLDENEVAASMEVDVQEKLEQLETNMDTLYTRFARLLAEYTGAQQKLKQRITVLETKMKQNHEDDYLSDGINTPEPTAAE

[2] = molecular target: T2, rat olfactory CNGA2 channel (homomeric) (Rattus norvegicus, UniProt Q00195, E342K); experiment: inside-out patch clamp, cGMP-activated current, Hill fit; assay type: cell-based
T2 sequence (Q00195 1-664 E342K): T1 sequence (Q00195 1-664) with E342K

- EC50 [2]: 8.6 ± 1.2 µM
SMILES: Nc1nc2c(ncn2[C@@H]2O[C@@H]3COP(=O)(O)O[C@H]3[C@H]2O)c(=O)[nH]1 [cGMP]
- inside-out patch clamp, cGMP-activated current [1]: Macroscopic cGMP-activated currents in different NaCl dilutions in one inside-out patch with WT CNG channels

— publication PMC2151509 (The Journal of General Physiology, 2006)
